Assay results: US10927106B2, “Benzothiazole derivatives as DYRK1 inhibitors” (PHARMASUM THERAPEUTICS AS, priority 2017, dated 2021)
One block for each compound: values may come before it.

How the values were obtained:
[1] = system: tau/MAPT phosphorylation in TS21 neurons; assay: Tau/MAPT phosphorylation in TS21 neuronal cultures, Western blotting; format: cell-based, human; conditions: treated for 10 days
Protocol: (§1) Overexpression of DYRK1A in DS is thought to account for increased tau phosphorylation by GSK3β and the increase in DYRK1A positive neurofibrillary tangles (NFTs) in the brains of people with DS and AD. Therefore therapeutic inhibition of DYRK1A activity in DS and AD may delay the progression of neurodegeneration in DS and AD. The following experiment on reduction of tau phosphorylation by inhibition of DYRK1A by inhibitor 4-93 was performed as described in the literature (Shi, Y. et al. A human stem cell model of early Alzheimer's disease pathology in Down syndrome. Sci. Transl. Med. 4, 124ra29 (2012)).
(§2) Neuronal cultures at day 40 were treated with DYRK1A inhibitors and control compounds for 10 days. Total protein was extracted and total tau and phosphorylated tau/MAPT was quantified by Western blotting using antibodies to total tau and a number of phospho-tau epitopes.

[2] = system: tau/MAPT phosphorylation in control neurons; assay: Tau/MAPT phosphorylation in control neurons, Western blotting; format: cell-based, human; conditions: treated for 10 days, compared to DMSO treated controls
Protocol: as §1, §2

DYRK1A = DYRK1A (Homo sapiens (Human), UniProt Q13627); assay: IC50 determination, methodology similar to Example A (Example B); format: biochemical; conditions: against DYRK1A; Table 8
[3] = TS21 neurons, normalised to β-actin, vs DMSO treated controls

SMILES: C[C@H](NC(=O)Cc1cc(F)cc(F)c1)C(=O)N[C@H](C(=O)OC(C)(C)C)c1ccccc1 [DAPT, reference compound]
- total tau protein levels ([1]; TS21 neuronal cultures): increased
- tau phosphorylation at Ser 396 [1, 3]: increased
- tau phosphorylation at Ser 404 [1, 3]: increased
- tau/MAPT phosphorylation at Ser 396 [2]: increased
- tau/MAPT phosphorylation at Ser 404 [2]: increased

- IC50 (DYRK1A): 351 nM
SMILES: COc1ccc(Nc2ccncc2-c2nc3cc(OC)ccc3s2)c(F)c1 [PST-131]
